In US7541156B1, “Method of identifying antinociceptive compounds using protease activated receptor-2” (priority 2000, dated 2009):
Entries after “also recorded” stand apart in the source; their conditions may differ.

Assays:
PAR-2 = target: T1, PAR-2 (Rattus norvegicus, UniProt Q63645); experiment: Intracellular Ca2+ response of primary neuronal cultures; assay type: cell-based; details: primary neuronal cultures of adult rat DRGs
T1 construct: assessing the response of primary neuronal cultures to trypsin and AcPep; endogenous in cells; host or cells: primary cultures of adult Sprague-Dawley rat DRG neurons
T1 sequence (Q63645 26-397): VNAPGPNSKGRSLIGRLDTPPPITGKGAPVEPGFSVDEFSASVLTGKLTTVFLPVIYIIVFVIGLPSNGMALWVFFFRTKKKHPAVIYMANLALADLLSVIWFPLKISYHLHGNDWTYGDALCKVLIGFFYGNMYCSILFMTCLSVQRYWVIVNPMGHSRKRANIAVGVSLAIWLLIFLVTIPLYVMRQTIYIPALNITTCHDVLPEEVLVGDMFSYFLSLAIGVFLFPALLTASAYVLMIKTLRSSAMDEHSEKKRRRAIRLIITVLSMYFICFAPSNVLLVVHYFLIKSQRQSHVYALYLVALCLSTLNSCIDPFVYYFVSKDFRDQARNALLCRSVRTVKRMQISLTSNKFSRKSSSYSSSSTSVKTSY
Text: In the results which follow, it is shown that activated proteases can have direct effects on sensory neurons, mediated by specific receptors. PAR-1 and PAR-2 are present in rat DRGs (Young et al. 2000). The presence of one of these receptors, PAR-2, in sensory neurons is first confirmed by finding evidence of mRNA and protein expression in adult rat thoracic DRGs. The functional implications of PAR-2 expression are then examined by assessing the response of primary neuronal cultures to trypsin and AcPep. Both agonists increased intracellular Ca^2+ confirming previously reported findings that a functional PAR 2 receptor is present in adult rat DRGs (Steinhoff et al. 2000). Trypsin stimulates both PAR-1 and PAR-2 and therefore an increase in intracellular Ca^2+ can be caused by activation of the two different receptors. […] Therefore the increased intracellular Ca^2+ response to AcPep reflects specific PAR-2 mediated activation.
Cell Culture. Primary cultures of rat DRG neurons were prepared from male adult Sprague Dawley rats (200-250 gm). Following enzymatic treatment and dissociation, neurons were spun through a percoll cushion (Hofbauer et al. 1998) and were plated at a density of 10,000-20,000 neurons/well of a 48 well tissue culture plate. […]

[1] = system: pancreatic afferent neurons / spinal segments T8-T10; experiment: c-FOS expression in spinal cord segments after pancreatic intraductal injection; assay type: in vivo, rat
Experimental: Intraductal (pancreatic duct) injection. To administer the necessary peptides directly into the rat pancreatic duct we followed a modified protocol, previously described by Kim et al. (1996). In brief, rats were anesthetized i.p. with nembutal sodium (Abbot Laboratories, Chicago, Ill.) (50 mg/kg body weight). The peritoneum was incised to expose the duodenum and the duodenal loop was pulled out. The pancreatic duct entering the duodenum was identified under dissecting microscope and a small niche was made into the duct with a 30-gauge needle. A polyethylene 10 tubing (0.61 mm outer diameter) (Becton Dickinson and Company, Franklin Lakes, N.J.) was guided into the duct and tied to secure its position. The common bile duct was ligated close to the liver to prevent entry of the injected substance into the liver. Similarly the duct was ligated near its entry into the duodenum. The position of the tube into the pancreatic duct was confirmed by freely flowing bile through the tubing. […] Thirty minutes later Capsaicin 0.5 mg/kg (total volume 500 μl) or vehicle (1×PBS, 10% ETOH, 1% Tween) was injected to half of the AcPep or CoPep injected rats. Three rats were included in each treatment group (n=3 for number of experiments). The tubing was carefully removed and bile flow from the liver into the duodenum was re-established. The abdominal cavity was closed with sutures. Rats were sacrificed 2.5 hrs after the initial injection.
C-fos staining. Rats were anesthetized with sodium pentobarbital (50 mg/kg i.p.) and perfused with 200 mls PBS followed by 500 mls ice-cold freshly prepared 4% paraformaldehyde in PBS. Spinal cord (level T5-T13) was removed, post-fixed in 4% paraformaldehyde for 18 hrs at 4° C. and placed in PBS (pH 7.4) containing 30% sucrose for 24 hrs at 4° C. Frozen sections (40 μm) were cut on a cryostat and stored as floating sections in PBS at 4° C. Every third section was stained for c-fos with a rabbit polyclonal serum, 1:1000 dilution, (c-fos, Ab-5, Oncogene Research Products) utilizing manufacturer's protocol. Antibody staining was visualized using a biotinylated secondary antisera and Vectastain ABC peroxidase kit with DAB as substrate. Sections were mounted on Superfrost Plus slides (VWR Scientific, West Chester, Pa.) and dehydrated. The number of c-FOS immunoreactive (IR) neurons were counted in 10 randomly chosen sections per segment under brightfield illumination and then averaged.
Statistics. Release data are presented as the mean± standard error of the mean (SEM) of wells from three separate experiments. […] Intraductal injection studies were analyzed using a repeated measure ANOVA and individual means were compared using a Newman-Keuls multiple comparison test. […]

## SLIGRL (PEPTIDE (1)..(6) PAR-2 activating peptide; listed as Rattus sp.) [AcPep]
PAR-2
  intracellular Ca2+: increased
[1]; 100 μM infused into the pancreatic duct, 2.5 hours, compared to CoPep
  c-FOS IR neurons in segments T8-T10, peptide alone: more c-FOS IR neurons; also recorded: does increase c-FOS expression
[1]; intraductal injection of AcPep 10 μM, 2.5 hours later, compared to control rats
  c-FOS expression in spinal segments T8-T10, peptide alone: significantly increased
[1]; peptide 100 μM intraductal, followed 30 min later by Capsaicin 0.5 mg/kg, 2.5 hours
  Capsaicin-evoked c-FOS expression in segments T8-T10: more c-FOS; also recorded: enhanced Capsaicin-evoked c-FOS expression
